Experiments:
[1] = system: AMPA receptor; settings: cited from earlier work
[2] = system: IL-6 mRNA; assay: IL-6 mRNA expression in AIA rat joint tissues (QRT-PCR); assay type: in vivo; settings: day 21
[3] = Body weight in MNX rats; assay type: in vivo, rat; settings: all rats; over 21 days
Protocol: (§1) NBQX treated rats received two intra-articular injections, the first immediately after MNX surgery and the second 7 days later. A single dose of Temgesic was also given sub-cutaneously to relieve pain following surgery. […] Vehicle control rats received injections of sterile H2O delivered in the same way at the same times. Over 21 days, weight, knee swelling (digital calliper) and incapacitance (Linton incapacitance meter) were measured on days 0, 1, 2, 3, 7, 8, 10, 14 and 21. The Linton incapacitance meter measures the weight exerted on each back leg whilst the rat is stationary in a clear Perspex box. The difference in weight bearing can then be calculated between the left and right leg. All rats were euthanized on day 21 and the knee joints fixed in formalin for histology.

[4] = system: MNX rats; assay: Incapacitance testing in MNX rats; assay type: in vivo, rat; settings: day 8
Protocol: (§2) We have established the meniscal transection (MNX) rat model of osteoarthritis. Surgery resection was performed wherein cutting through and removing part of the medial collateral ligament and then transecting the medial meniscus was performed under Home Office License. Surgery was performed under anaesthesia. Animals were then allowed to recover from surgery.
(§3) Using the MNX model, we tested the effects of NBQX injected directly into the knee joint. There were 5 groups of male Sprague-Dawley rats, 3 animals per group as follows: • MNX+sterile H2O (vehicle control) • MNX+2.5 mM NBQX • MNX+12.5 mM NBQX • MNX+25 mM NBQX • Naïve
as §1

[5] = system: MNX rats; assay: Knee swelling in meniscal transection (MNX) rats; assay type: in vivo, rat
Protocol: as §2, §3, §1

[6] = Body weight in ligament rupture mouse model; assay type: in vivo; settings: all mice; over 21 days
Protocol: Using our non-invasive ligament rupture model, following trauma mice were given an intra-articular injection of 20 mM NBQX in the right knee. The left knee served as unloaded controls. Sterile water injections were performed in some mice to act as vehicle control. Knee swelling was measured using digital callipers on days 0, 1, 2, 3, 7, 16 and 21. […] Lameness scores were not severe enough to warrant extra doses of pain relief.

[7] = system: AIA rats; assay: Macroscopic knee analysis (X-ray, MRI) in AIA rats; assay type: in vivo, rat; settings: day 21
Text: Prior to decalcification, whole rat knees were examined by radiography and MRI. Radiographs of both the inflamed and non-inflamed knees of 9 AIA, 9 NBQX and 3 control rats were obtained using a Kodak FX Pro in-vivo Imaging System (Advanced Molecular Vision, Grantham, UK), and the images analysed using Kodak Molecular Imaging software version 5 with the following parameters: 30 second exposure time at 35 kV, 4.96 F-stop, 71.4 mm FOV, 9.8 mm focal plane.
Both the inflamed and non-inflamed knee joints of 6 AIA and 6 NBQX rats were imaged using a high spatial resolution MRI scanning protocol at the Experimental MRI Centre (EMRIC, School of Biosciences, Cardiff University). Each pair of knees was embedded in 1% agarose (Promega) inside a 50 ml falcon tube prior to scanning. MRI was performed using a Bruker Biospin Advance 9.4T ([…]) MRI system equipped with a transmit-receive quadrature coil. The scanning acquisition parameters were as follows: echo time […], repetition time 24 msec, field of view […]; matrix 640×280×280; and flip angle 180°. Images were subsequently viewed and analysed in ParaVision 5.1 (Bruker) and Analyze 10.0 software Mayo Biomedical Imaging Resource, Rochester, Minn., USA).

[8] = system: ligament ruptured mice; assay: Knee swelling in non-invasive ligament rupture mouse model; assay type: in vivo; settings: 20 mM intra-articular
Protocol: We have established a non-invasive mouse model of post-traumatic knee joint degeneration due to ligament rupture.
Using custom built cups to hold the knee in flexion, loads (12N, 4 Hz, sine wave; ElectroForce® 3200, BOSE, USA) were applied to the right knees of 12-week-old C57Bl6 mice (n=10). […] Left knees served as unloaded controls. Immediately following ligament rupture, mice were given an intra-articular injection of 20 mM NBQX in to the right knee, whilst the control mice received an intra-articular injection of sterile H2O (vehicle control). A single dose of Temgesic was also given sub-cutaneously to relieve pain for up to 12 hours following loading.
Lameness scores were carried out every day for the first week and then every few days the following weeks to assess the welfare of the animals and the potential need for pain relief. Knee swelling was measured using digital callipers on days 0, 1, 2, 3, 7, 16 and 21. All mice were euthanized on day 21 and the knee joints fixed in formalin for histology.

[9] = system: AIA rats; assay: KA1/AMPAR2 immunohistochemistry and TRAP staining in AIA rats; settings: day 21
Protocol: (§4) For AIA, after a 7 day settling in period, animals received a subcutaneous injection of methylated bovine serum albumin (mBSA; 0.5 mg/ml; Sigma, Poole, UK) emulsified with an equal volume of Freund's complete adjuvant (CFA; 0.25 mg Mycobacterium tuberculosis: Sigma) into the right flank. A second subcutaneous injection of the emulsion was administered in the left flank 7 days later. Fourteen days following the second injection (day 0), an intra-articular injection of mBSA (0.5 mg in 50 μl saline) was administered into the right knee of 15 rats to serve as the AIA group. Another 15 rats received an intra-articular injection of 0.5 mg mBSA mixed with 2.5 mM NBQX (Tocris, Bristol, UK) in 50 μl saline, into the right knee. These rats served as the NBQX treatment group. […] Six control rats received no subcutaneous or intra-articular injections.
GluRs and transporters were localised in sequential paraffin knee sections (9 AIA, 9 NBQX and 6 control knees) using antibodies to kainate (anti-KA1, 1:400 dilution), AMPA receptor-2 (anti-ionotropic glutamate receptor-2, 1:100, both Abcam, Cambridge, UK), GLAST (GLAST11-S, 1:100) and EAAC1 (EAAC11-A, 1:200, both Alpha Diagnostic International, Texas, USA). AMPAR2 was also localised in 6 MNX and 6 naïve rats. Sections, processed as for histology, were deparaffinised and rehydrated prior to antigen retrieval using 1 mg/mitrypsin (Sigma) for 20 minutes at 37° C. Endogenous peroxidase activity was blocked with 0.3% hydrogen peroxide (Sigma) for 30 minutes followed by 3 washes in 1×TBS/0.1% tween for 15 minutes each. Sections were treated with 10% normal blocking serum (Sigma) for 1 hour prior to overnight incubation at 4° C. with primary antibody, followed by 3 washes in 1×TBS/0.1% tween. […] ABC horseradish peroxidase kit following the manufacturer's instructions (Vector Laboratories, Peterborough, UK). Sections were developed using nickel enhanced diaminobenzidine (DAB) (Vector Laboratories), counterstained in Mayer's haematoxylin (Fisher Scientific), rinsed in tap water, dehydrated, cleared in xylene and mounted. […]

[10] = system: AIA rats; assay: Knee swelling in AIA rats; assay type: in vivo, rat
Protocol: Diameters of the inflamed (right) and non-inflamed (left) knees of all the rats were measured using a Mitutoyo® digital calliper (RS Components Ltd, Northants, UK) to quantify swelling. […] Three readings were taken for each knee and the difference between the means of the inflamed and non-inflamed knee gave a value in millimeters of knee swelling.

[11] = system: Cathepsin K mRNA; assay: Bone phenotype mRNA expression in AIA rat knees; assay type: in vivo; settings: day 21
[12] = system: AIA rats; assay: Histological disease assessment in AIA rats (synovial inflammation, joint degradation); assay type: in vivo, rat; settings: day 21
Protocol: On day 21, 9 AIA, 9 NBQX and 3 control rats were culled and their knees dissected intact and fixed in 10% neutral buffered formalin solution (Sigma) for 2 days. Knees were decalcified in 10% EDTA (Fisher Scientific, Loughborough, UK) at 4° C., embedded in paraffin wax, sectioned (6 μm) in the coronal plane and stained with haematoxylin and eosin for synovial inflammation or toluidine blue/safranin-O for cartilage and bone scoring or retained for immunohistochemical analysis. Synovial inflammation and joint degradation were scored by two independent observers blinded to treatment group. An established scoring system was used to score synovial inflammation (3). Briefly, 3 parameters were scored: synovial hyperplasia (pannus formation) (0-3), synovial infiltrate (0-5) and synovial exudate (0-3), to give a maximum score of 11 per joint. Joint degradation was scored using a modified Mankin score (Table 1) consisting of: cartilage surface integrity (0-6), chondrocyte appearance (0-2), proteoglycan loss (0-4), tidemark integrity (0-2) and bone changes (0-3) to give a maximum score of 17 per joint quadrant (medial and lateral femoral condyles (MFC and LFC respectively) and medial and lateral tibial plateaux (MTP and LTP respectively)) totaling to a maximum of 68 per knee. In each knee, two representative sections ˜500 μm apart were scored for joint degradation.

[13] = system: RA FLS; settings: cited from earlier work
[14] = system: human RA FLS; settings: cited from earlier work
[15] = system: Kainate receptor; settings: cited from earlier work
[16] = system: AIA rats; assay: Footprint analysis in AIA rats
Protocol: as §4
Hindlimb walking patterns were evaluated by footprint analysis on days 0, 1, 2, 3, 4, 7, 9, 14 and 21 as previously described (4). […] Three sets of at least two stepping cycles per side (six sequential steps) were performed for each rat per experimental day. Three parameters were measured: limb rotation (angle between a line through the centre of the foot pad parallel to the walking direction and a line through the third digit), stride length (distance between feet of the same side) and stance width (distance between feet of the right and left stepping cycle).

NS(=O)(=O)c1cccc2c1c([N+](=O)[O-])cc1[nH]c(=O)c(=O)[nH]c12 [NBQX, 2,3-dihydroxy-6-nitro-7-sulfamoyl-benzo[f]quinoxaline-2,3-dione]
AMPA receptor antagonist [1]: Yes | IL-6 relative expression levels in meniscus vs AIA rats ([2]; inflamed knee, P<0.05): significantly lower | IL-6 relative expression levels in meniscus vs AIA rats ([2]; left non-inflamed knee): not significant | weight [3]: consistently put on weight | difference in weight bearing left/right leg of vehicle control MNX rats compared to NBQX treated rats ([4]; 2.5 mM, P<0.01): significantly greater difference in weight bearing | difference in weight bearing left/right leg of vehicle control MNX rats compared to NBQX treated rats ([4]; 12.5 mM, P<0.05): significantly greater difference in weight bearing | difference in weight bearing left/right leg of vehicle control MNX rats compared to NBQX treated rats ([4]; 25 mM, P<0.01): significantly greater difference in weight bearing | knee swelling of vehicle control MNX rats compared to NBQX treated MNX rats ([5]; day 8, 25 mM intra-articular, P<0.05): significantly greater knee swelling | knee swelling of vehicle control MNX rats compared to NBQX treated MNX rats ([5]; day 14, 2.5 mM intra-articular, P<0.01): significantly greater knee swelling | knee swelling of vehicle control MNX rats compared to NBQX treated MNX rats ([5]; day 14, 12.5 mM intra-articular, P<0.05): significantly greater knee swelling | weight [6]: consistently put on weight | joint erosion in MRI [7]: greatly reduced | joint erosions in X-rays [7]: Fewer joint erosions | synovial inflammation in MRI [7]: greatly reduced | knee swelling vs vehicle controls ([8]; day 7, P<0.05): significantly less knee swelling | knee swelling vs vehicle controls ([8]; day 21, P<0.001): significantly less knee swelling | knee swelling compared to day 0 measurements ([8]; from day 2): no significant difference | GluR positive cells [9]: apparent reduction | TRAP positive osteoclasts vs AIA [9]: less abundant | extent of bone remodeling [9]: reduced | mean knee swelling ([10]; day 1, 2.5 mM intra-articular, right knee): 2.95 mm | reduction in peak knee swelling ([10]; day 1, vs AIA rats, 2.5 mM intra-articular): 33% | knee swelling vs AIA rats ([10]; every time point throughout 21 days, P<0.001): significant reduction | cathepsin K mRNA expression, inflamed knees vs AIA inflamed knees [11]: significant reduction | synovial hyperplasia, exudate, infiltrate and articular surface degradation vs AIA rats [12]: significantly less severe | average joint degeneration severity score vs AIA rats ([12]; P<0.001): significantly reduced | bone changes score vs AIA ([12]; P<0.001): largest difference | synovial inflammation score vs AIA rats ([12]; P<0.001): significantly lower | joint degradation in the MFC vs AIA rats ([12]; P<0.01): significantly less joint degradation | proteoglycan loss score vs AIA ([12]; P<0.01): significantly lowered | tidemark integrity score vs AIA ([12]; P<0.01): significantly lowered | chondrocyte appearance score vs AIA ([12]; P<0.05): significantly lowered | joint degradation in the LFC vs AIA rats ([12]; P<0.05): significantly less joint degradation | inhibition of IL-6 release increased by high glutamate concentrations [13]: inhibited | MMP-2 expression by FLS [14]: did not affect | Kainate receptor antagonist [15]: Yes | stance width vs control rats ([16]; P<0.05): significantly greater | stride length vs control rats ([16]; P<0.05): significantly shorter | stride length ([16]; by day 14): returned to normal | stance width ([16]; by day 21): normal | weight bearing (footprints) ([16]; days 1 and 2): able to weight bear | degree of foot rotation vs control rats ([16]; right limb, P<0.05): significantly greater
